# Reference: patent publication US6358977B1, “Use of 4-piperidinemethanol derivatives in treatment of neurodevelopmental disorders” (A. Carlsson Research AB, priority 1998, dated 2002)
# “Also recorded” adds a separate entry of the source.
# Tested on: Male NMRI mice
# Experiment: Animal model of autism: defective habituation (locomotor activity) in mice rendered hypoglutamatergic with MK-801
# Assay type: in vivo
# Text: The inventor of the present invention and her coworkers have developed an animal model of autism, where mice are rendered hypoglutamatergic by treatment with the glutamate antagonist MK-801 (dizocilpine). Similarly to persons with autism, these hypoglutamatergic animals display defective habituation, perseverant behavior (e.g. relentless forward locomotion, so-called “obstinate progression”), stereotypies, a meager behavioral repertoire and difficulties to change behavioral program. The researchers have chosen to focus their investigation on the defective habituation, since this variable is easily quantified, and a prominent feature of autism.
# Male NMRI mice (B&K Universal AB, Sollentuna, Sweden) weighing 25-30g at the time of testing were used in the experiments. Animals were housed in groups of about 20 per cage for at least one week before the experiment was carried out, with free access to water and food. Temperature: 20-22° C.; 12h light-dark cycle (lights on 6 AM).
# (+)-MK-801 hydrogen maleate (dizocilpine; Research Biochemical Inc) was dissolved in physiological saline. M100907 [(+)-(R)-α-(2,3-dimethoxyphenyl)-1-[2-(4-fluorophenyl) ethyl]-4-piperidinemethanol; courtesy Hoechst Marion Roussel, Inc USA] was dissolved in a few microliters of acetic acid and a 5.5% glucose solution. The injection volume was 10 ml/kg. Control. animals were always given the same solvent as the drug was dissolved in.
# Locomotor activity was measured using activity meters (Diaiscan animal activity monitor, model RXYZM (16) Tao, Omnitech Electronics, Columbus, Ohio, USA). The equipment consists of eight light and sound attenuated boxes (42×42×30 cm) with infrared photo sensors along the front and the side near the floor of the boxes.
# When moved to a novel environment, normal mice display an initial phase of exploratory activity lasting about 30 minutes. […] The results shown in the figure are medians and upper and lower quartiles.
# The inventor and […] co-workers then tested a compound according to the invention, namely M100907. […] M100907 was administered intraperitoneally immediately before the commencement of the behavioral recording. The M100907 doses were 0.001., 0.01 and 0.1 mg/kg, respectively. The results shown are medians and upper and lower quartiles (veh=vehicle=controls).
SMILES,"habituation in novel environment (loss of habituation, FIG. 1) (MK-801 0.3 or 0.8 mg/kg intraperitoneally immediately before 70 minutes recording, ordinate counts/5 min interval)","effect on MK-801-induced deficient habituation (loss of habituation, FIG. 2) (M100907 0.001, 0.01 and 0.1 mg/kg intraperitoneally immediately before behavioral recording, MK-801-treated mice, ordinate m/30 min)","interference with normal behavior (M100907 0.001, 0.01 and 0.1 mg/kg intraperitoneally, mice)","hyperactivity induced by the glutamate antagonist MK-801 (mouse, M100907 intraperitoneally)"
"C[C@]12N[C@H](Cc3ccccc31)c1ccccc12 [MK-801, reference compound]",deficient habituation; also recorded: impaired habituation,,,
"COc1cccc([C@H](O)C2CCN(CCc3ccc(F)cc3)CC2)c1OC [M100907, R-(+)-α-(2,3-dimethoxyphenyl)-1-[2-(4-fluorophenylethyl)]-4-piperidine-methanol]",,displays anti-autistic effects; also recorded: alleviates the deficient habituation,without interfering with normal behavior,reducing the hyperactivity
